This is an account of results in US20080207600A1, “Pharmaceutical Combination for the Treatment of Cns Functional Disorders” (priority 2004, published 2008).

Marks after values point to notes of the source that are not given here.

The assay has as its system spontaneous motion activity of rats. In words: Depression of spontaneous motion activity (SMA) in "open field" test. Type of assay: in vivo. The note with it: for Spontaneous activity (total values) b) after haloperidol administration: rats, i/p., open field 2 minutes, 10 minutes after administration, M±σ. An excerpt: The presently-known clinical methods of haloperidol administration are: intravenous, intramuscular and oral. […] In theory, it is possible to improve the efficacy of the medicine, to reduce the single-administration dosage (through elimination of the effect of “first passage” through the liver) and to alleviate adverse somatic side effects.
The Applicant used pharmacological combination of intraperitoneally (i/p.) administered haloperidol with nasally applied CO-generating composition.
The experiments were performed on 24 puberty-age white rats (of no particular breed), body mass: 100-120 grams. Depression in SMA of the animals, as produced by i/p. drug administration, was compared with SMA depression produced by i/p. administration combined with nasal administration of CO-generating composition on the basis of a hem-oxygenase enzyme form. SMA of each animal was evaluated as total sum of values obtained within 2 minutes of “open field” test (in terms of the number of poles/supports, number of ring exercises and cleanings), prior to drug administration, and 10 minutes after drug administration.
The experimental animals were subdivided into 4 groups:
Group No. 1: controls (6 animals), no exposure;
Group No. 2: haloperidol (7 animals), i/p., 0.2 mg/kg;
Group No. 3: haloperidol (5 animals), i/p., 0.05 mg/kg;
Group No. 4: haloperidol (6 animals), i/p., 0.05 mg/kg, in pharmacological combination with CO-generating composition.
Haloperidol was administered by i/p. route within the physiological solution; CO-generating composition was administered nasally.

[1] abbreviates: preliminary studies, intraperitoneal, 0.2 mg/kg.

For `O=C(CCCN1CCC(O)(c2ccc(Cl)cc2)CC1)c1ccc(F)cc1` [haloperidol], under setting [1], the “Persistence of haloperidol-dependant depression in motive responses” value was 53.5 ± 7.7 min and the “Time to development of haloperidol-dependant depression in motive responses” value amounted to 4.2 ± 1.8 min. For the same compound, the “Spontaneous activity (total values) b) after haloperidol administration” value (0.05 mg/kg) is listed as 24 ± 3**^). Besides, the “Spontaneous activity (total values) b) after haloperidol administration” value (0.2 mg/kg) is listed as 3 ± 1*^).
